Literature values, collected in publication PMC12682947, “Identification of New KCNT1‐Epilepsy Drugs by In Silico, Cell, and Drosophila Modeling” (Annals of Neurology, 2025).
Counter-ions that a name gives are not always drawn.

Tested on: hERG potassium channels
Settings: read-out: IC50 for inhibition of hERG potassium channels; cited from earlier work

In the case of `Cc1c(O)cccc1C(=O)N[C@@H](CSc1ccccc1)[C@H](O)CN1C[C@H]2CCCC[C@H]2C[C@H]1C(=O)NC(C)(C)C` [nelfinavir mesylate], the IC50 is given as 11.5 µM.
